Laboratory results as given in US20080176963A1, “TREATMENT OF BRAIN DISORDERS OF THE STRIATUM” (priority 2007, published 2008).
Where two headings read alike, the source gives them in different places.

Experiments:
[1] = tested on: indirect-pathway MSN synapses; type: cell-based, mouse
tyrosine hydroxylase = test: Tyrosine hydroxylase staining of striatum after 6-OHDA; type: in vivo, mouse; details: 48 hours after bilateral 6-OHDA injection (5 μg/μL, 2 μL/side)
Description: (§1) 6-hydroxydopamine treatment Bilateral lesions of the substantia nigra pars compacta were achieved by injecting 6-OHDA Bromide (Sigma-Aldrich) into the right and left medial forebrain bundles. Mice were anesthetized with i.p. injections of ketamine (100 mg/kg)/xylazine (10 mg/kg) and placed into a stereotactic frame. 6-OHDA was prepared immediately before injections at a concentration of 5 μg/μL in 0.02% ascorbic acid. Injections were performed using 33 gauge cannulae (Plastics One) attached to a syringe pump (Harvard Apparatus) running at 0.5 μL/min, to a total volume of 2 μL/side at the following coordinates: AP: −1.5 mm; ML±1 mm; DV: 4.8 mm. Brain slices were obtained from 6-OHDA treated animals at 48-60 hour after injections.
Tyrosine hydroxylase staining. The degree of dopamine denervation was assessed at 48 hours post-injection in a subset of 6-OHDA-treated mice by tyrosine hydroxylase (TH) staining. Mouse forebrains were fixed at 4° C. for 1 hour in 4% paraformaldehyde (in PBS), and then kept in PBS overnight at 4° C. Brains were transferred to 30% sucrose (in PBS) for 2 hours, blocked in O.C.T. and frozen. […] coronal slices containing the striatum were collected on slides using a cryostat. […] Images were acquired on a Zeiss Axioskop 2 coupled to a Hamamatsu CCD and analyzed using Metamorph software.

6-OHDA-treated mice [2] = type: in vivo, mouse
Description: (§2) Dopamine depletion and behaviour. Reserpine was administered i.p. at a concentration of 1 or 5 mgkg^−1, and electrophysiological and behavioural experiments were performed 18-24 h after injections. 6-Hydroxydopamine was injected bilaterally into the median forebrain bundle at a concentration of 5 μg μl^−1 to a total volume of 2 μL per side, and experiments were performed 48-60 h after injections. Catalepsy was measured with the bar test. Descent latency represents the time in seconds required for the mouse either to remove both paws from a bar (diameter 2 mm) placed 4 cm above the ground, or for one paw to touch the ground. Horizontal locomotor activity was measured in 15-min blocks with the ENV-510 test chamber and Activity Monitor software. Animals were tested 45-60 min after drug administration. All procedures involving animals were approved by the Institutional Animal Care and Use Committee.
as §1
(§3) Behavior. 3- to 4-week-old C57/BL6 wild-type mice were injected with reserpine (1 mg/kg i.p.) or 6-OHDA as described above. […] Animals were tested 18-24 hours after reserpine injections and 48-60 hours after 6-OHDA injections. […]
(§4) To test catalepsy, a horizontal bar (2 mm diameter) was placed 4 cm above the ground. […] Descent latency was measured as the delay to when either both paws were removed from the bar or one paw touched the ground. […]

6-OHDA-treated mice [3] = details: mouse, in vivo
Description: as §2, §1, §3, §4

[4] = tested on: indirect-pathway synapses; test: DHPG-elicited depression of EPSCs (eCB-LTD), indirect pathway; type: cell-based, mouse
direct-pathway synapses [5] = test: DHPG-elicited depression of EPSCs (eCB-LTD), direct pathway; type: cell-based, mouse; details: DHPG 100 μM for 10 min, MSNs held at +50 mV (so in the source)
medium spiny neurons = test: Effect of drug wash-in alone on EPSC amplitudes in striatal MSNs; type: cell-based, mouse; details: URB597 1 μM; URB754 5 μM
reserpine-treated mice [6] = test: Catalepsy bar test in reserpine-treated mice; type: in vivo, mouse
Description: as §2
(§5) Reserpine treatment. To study the effects of dopamine depletion, reserpine (Sigma-Aldrich) was dissolved in 1% glacial acetic acid at a concentration of 2.5 mg/mL. This solution was diluted with dH20 by a factor of 10, to yield a final concentration of 0.1% glacial acetic acid and 250 μg/mL reserpine This reserpine solution was injected i.p. at a concentration of 1 mg/kg or 5 mg/kg as stated in the text.
(§6) Behavior. 3- to 4-week-old C57/BL6 wild-type mice were injected with reserpine (1 mg/kg i.p.) or 6-OHDA as described above. […] Animals were tested 18-24 hours after reserpine injections and 48-60 hours after 6-OHDA injections. […] All drugs were injected i.p. in 0.9% NaCl at a volume of 20 μL/gm. The injection solution for URB597 was prepared by diluting a stock solution prepared in DMSO into saline, with a final concentration of 0.5% DMSO. Animals were then tested again at 45-60 minutes following drug injections. […]
as §4

[7] = tested on: indirect-pathway MSN synapses; test: LTD induced by tetanic stimulation in striatal slices from reserpine-treated mice; type: cell-based, mouse
reserpine-treated mice [8] = test: Open-field locomotor activity in reserpine-treated mice; type: in vivo, mouse
Description: as §2, §5, §6, §4

direct pathway neurons = test: LTD induction at direct pathway synapses in striatal slices; type: cell-based, mouse; details: URB754 5 μM
direct-pathway synapses [9] = test: Presynaptic inhibition of EPSCs by CB1 receptor agonist, direct pathway; type: cell-based, mouse; details: WIN55,212 1 μM; control mice
[10] = tested on: indirect-pathway synapses; test: Presynaptic inhibition of EPSCs by CB1 receptor agonist, indirect pathway; type: cell-based, mouse; details: WIN55,212 1 μM
MSNs = test: Block of carbachol-induced inward membrane current in MSNs; type: cell-based, mouse; details: pirenzepine; data not shown
From the text: FIG. 5. […] The arrow marks the time of LTD induction. […] Error bars are ±SEM.

striatal dopamine = details: 18-24 hours after reserpine injection; cited from earlier work
[11] = tested on: indirect-pathway MSN synapses; test: LTD induced by high-frequency afferent stimulation, whole-cell recording in striatal slices of control mice; type: cell-based, mouse; details: indirect-pathway MSNs; AM251 1 μM; sulpiride 10 μM; methysergide 4 μM, GR125487 1 μM, LY278584 1 μM, prazosin 2 μM, propranolol 1 μM; without drug 51±5%

NCCc1cc(O)c(O)cc1O [6-OHDA, 6-hydroxydopamine]
EPSC after LTD induction, % of baseline at 30-40 min [1]: 111±13 % of baseline
Immunoreactivity for tyrosine hydroxylase in the striatum (tyrosine hydroxylase): 34±4 % of control
Descent latency, catalepsy bar test (6-OHDA-treated mice [2]; mouse, in vivo): 45 ± 4 s
Distance traveled in 15 min, open field (6-OHDA-treated mice [3]): 236±52 cm

N[C@H](C(=O)O)c1cc(O)cc(O)c1 [DHPG, (S)-3,5-dihydroxyphenylglycine]
EPSC, % of baseline at 20-30 min after brief DHPG application ([4]; DHPG 100 μM for 1 min, alone or in the presence of quinpirole 10 μM or URB754): 98±5 % of baseline
EPSC, % of baseline at 30-40 min ([4]; DHPG 100 μM for 10 min, MSNs held at +50 mV (so in the source)): 64±5 % of baseline
EPSC, % of baseline at 30-40 min (direct-pathway synapses [5]): 95±9 % of baseline

NC(=O)c1cccc(-c2cccc(OC(=O)NC3CCCCC3)c2)c1 [URB597]
Effect of drug alone on EPSC amplitudes / synaptic transmission (medium spiny neurons): no effect
Descent latency, catalepsy bar test (reserpine-treated mice [6]; mouse, in vivo): no significant decrease in catalepsy
EPSC after LTD induction, % of baseline at 30-40 min [1]: 55±7 % of baseline
EPSC after LTD induction, % of baseline at 30-40 min [7]: 62±5 % of baseline
Distance traveled in 15 min, open field (reserpine-treated mice [8]; mouse, in vivo): no significant decrease in catalepsy or increase in locomotor activity
Descent latency, catalepsy bar test (6-OHDA-treated mice [2]; mouse, in vivo): no significant decrease in catalepsy
Distance traveled in 15 min, open field (6-OHDA-treated mice [3]): no significant decrease in catalepsy or increase in locomotor activity

Cc1ccc(Nc2nc3ccc(C)cc3c(=O)o2)cc1 [URB754]
Effect of drug alone on EPSC amplitudes / synaptic transmission (medium spiny neurons): no effect
Descent latency, catalepsy bar test (reserpine-treated mice [6]; reserpine-treated mice, URB754 1.5 mg/kg i.p., quinpirole 1.5 mg/kg i.p., alone or coadministered): no significant decrease in catalepsy
LTD at direct pathway neurons in the presence of drug (direct pathway neurons): nor did it unmask LTD
EPSC after LTD induction, % of baseline at 30-40 min [1]: 69±9 % of baseline
EPSC after LTD induction, % of baseline at 30-40 min [7]: 68±13 % of baseline
Distance traveled in 15 min, open field (reserpine-treated mice [8]; mouse, in vivo): no significant decrease in catalepsy or increase in locomotor activity
EPSC, % of baseline at 20-30 min after brief DHPG application [4]: 84±6 % of baseline
Descent latency, catalepsy bar test (6-OHDA-treated mice [2]; 6-OHDA-treated mice, URB754 1.5 mg/kg i.p., quinpirole 1.5 mg/kg i.p., alone or coadministered): no significant decrease in catalepsy
Distance traveled in 15 min, open field (6-OHDA-treated mice [3]): no significant decrease in catalepsy or increase in locomotor activity

Cc1c(C(=O)c2cccc3ccccc23)c2cccc3c2n1[C@H](CN1CCOCC1)CO3 [WIN55,212]
EPSC, % of baseline at 15-20 min after wash-in (direct-pathway synapses [9]): 56±8 % of baseline
EPSC, % of baseline at 15-20 min after wash-in ([10]; control mice): 47±7 % of baseline
EPSC, % of baseline at 15-20 min after washing ([10]; dopamine-depleted animals (reserpine and 6-OHDA pooled)): 58±5 % of baseline

CN1CCN(CC(=O)N2c3ccccc3C(=O)Nc3cccnc32)CC1 [pirenzepine]
Block of carbachol-induced inward membrane current (MSNs): block a carbachol-induced inward membrane current

COC(=O)[C@H]1[C@H]2C[C@@H]3c4[nH]c5cc(OC)ccc5c4CCN3C[C@H]2C[C@@H](OC(=O)c2cc(OC)c(OC)c(OC)c2)[C@@H]1OC [reserpine]
Descent latency, catalepsy bar test (reserpine-treated mice [6]; reserpine 1 mg/kg i.p. 18-24 h before, URB597 1 mg/kg i.p., quinpirole 1.5 mg/kg i.p., alone or together, 60 s maximum, reserpine line = before drug): more than 60 s
EPSC after LTD induction, % of baseline at 30-40 min ([7]; mice given reserpine 5 mg/kg i.p. 18-24 h earlier, in bath quinpirole 10 μM, URB597 1 μM or URB754 5 μM, reserpine line = no drug in bath): 122±8 % of baseline
Distance traveled in 15 min, open field (reserpine-treated mice [8]; reserpine 1 mg/kg i.p. 18-24 h before, URB597 1 mg/kg i.p., quinpirole 1.5 mg/kg i.p., 45-60 min after injection, reserpine line = before drug): 48±11 cm
Striatal dopamine (striatal dopamine): < 1 % of normal levels

CCN1CCCC1CNC(=O)c1cc(S(N)(=O)=O)ccc1OC (centres unmarked) [sulpiride]
EPSC after LTD induction, % of baseline at 30-40 min [11]: 96±12 % of baseline
